Results as given in the NIST ThermoML archive (doi:10.1016/j.tca.2012.01.007).

How the values were obtained:
[1] = wn = mass fraction of the nth substance listed; conditions: 101 kPa, Liquid, Vibrating tube method
[2] = 101 kPa, Liquid, Vibrating tube method

CO [methanol] + OCCNCCO
[1], w2 = 0
Conditions | mass density [kg/m3]
283.15 K | 801.436
293.15 K | 792.069
303.15 K | 782.606
313.15 K | 773.049
323.15 K | 763.363
333.15 K | 753.506

CCO [ethanol] + OCCNCCO
[1], w2 = 0
Conditions | mass density [kg/m3]
278.15 K | 802.686
283.15 K | 798.458
293.14 K | 789.938
303.14 K | 781.332
313.16 K | 772.577
323.14 K | 763.677
333.14 K | 754.521
343.15 K | 745.054
348.14 K | 740.206

CCO [ethanol]
[2]
Conditions | mass density [kg/m3]
278.15 K | 802.686
283.15 K | 798.458
293.14 K | 789.938
303.14 K | 781.332
313.16 K | 772.577
323.14 K | 763.677
333.14 K | 754.521
343.15 K | 745.054
348.14 K | 740.206

O [water]
[2]
Conditions | mass density [kg/m3]
283.15 K | 999.964
293.15 K | 998.557
303.15 K | 995.999
313.15 K | 992.57
323.15 K | 988.391
333.15 K | 983.453
343.14 K | 977.483
353.14 K | 972.2

O [water] + OCCNCCO
[1], w2 = 0
Conditions | mass density [kg/m3]
283.15 K | 999.964
293.15 K | 998.557
303.15 K | 995.999
313.15 K | 992.57
323.15 K | 988.391
333.15 K | 983.453
343.14 K | 977.483
353.14 K | 972.2

CO [methanol]
[2]
Conditions | mass density [kg/m3]
283.15 K | 801.436
293.15 K | 792.069
303.15 K | 782.606
313.15 K | 773.049
323.15 K | 763.363
333.15 K | 753.506

OCCNCCO [diethanolamine] + CO
[1]
Conditions | mass density [kg/m3]
283.14 K, w1 = 0.5999 | 976.523
283.15 K, w1 = 0.1 | 827.828
283.15 K, w1 = 0.2 | 855.383
283.15 K, w1 = 0.3 | 883.986
283.15 K, w1 = 0.3999 | 913.669
283.15 K, w1 = 0.5002 | 945.053
283.15 K, w1 = 0.8001 | 1038.06
283.15 K, w1 = 0.831 | 1047.98
283.15 K, w1 = 0.9004 | 1070.41
283.15 K, w1 = 0.9209 | 1077.24
283.16 K, w1 = 0.6997 | 1006.57
293.14 K, w1 = 0.1 | 818.746
293.14 K, w1 = 0.9209 | 1070.68
293.15 K, w1 = 0.2 | 846.577
293.15 K, w1 = 0.3 | 875.502
293.15 K, w1 = 0.3999 | 905.478
293.15 K, w1 = 0.5002 | 937.232
293.15 K, w1 = 0.5999 | 969.048
293.15 K, w1 = 0.6997 | 999.095
293.15 K, w1 = 0.8001 | 1030.93
293.15 K, w1 = 0.9004 | 1063.79
293.16 K, w1 = 0.831 | 1040.93
303.14 K, w1 = 0.1 | 809.6
303.14 K, w1 = 0.5999 | 961.458
303.15 K, w1 = 0.2 | 837.727
303.15 K, w1 = 0.3 | 866.962
303.15 K, w1 = 0.3999 | 897.232
303.15 K, w1 = 0.5002 | 929.334
303.15 K, w1 = 0.6997 | 991.41
303.15 K, w1 = 0.8001 | 1023.79
303.15 K, w1 = 0.831 | 1033.88
303.15 K, w1 = 0.9004 | 1057.05
303.15 K, w1 = 0.9209 | 1064.03
313.14 K, w1 = 0.1 | 800.368
313.15 K, w1 = 0.2 | 828.795
313.15 K, w1 = 0.3 | 858.34
313.15 K, w1 = 0.3999 | 888.909
313.15 K, w1 = 0.5002 | 921.353
313.15 K, w1 = 0.5999 | 953.776
313.15 K, w1 = 0.6997 | 983.97
313.15 K, w1 = 0.8001 | 1016.6
313.15 K, w1 = 0.831 | 1026.78
313.15 K, w1 = 0.9004 | 1050.22
313.15 K, w1 = 0.9209 | 1057.29
323.14 K, w1 = 0.1 | 791.018
323.15 K, w1 = 0.2 | 819.75
323.15 K, w1 = 0.3 | 849.609
323.15 K, w1 = 0.3999 | 880.486
323.15 K, w1 = 0.5002 | 913.261
323.15 K, w1 = 0.5999 | 945.981
323.15 K, w1 = 0.6997 | 976.456
323.15 K, w1 = 0.8001 | 1009.28
323.15 K, w1 = 0.831 | 1019.63
323.15 K, w1 = 0.9004 | 1043.29
323.15 K, w1 = 0.9209 | 1050.47
333.14 K, w1 = 0.1 | 781.504
333.14 K, w1 = 0.5999 | 938.046
333.14 K, w1 = 0.9209 | 1043.49
333.15 K, w1 = 0.2 | 810.556
333.15 K, w1 = 0.3 | 840.739
333.15 K, w1 = 0.3999 | 871.934
333.15 K, w1 = 0.5002 | 905.025
333.15 K, w1 = 0.6997 | 968.833
333.15 K, w1 = 0.8001 | 1002.21
333.15 K, w1 = 0.831 | 1012.39
333.15 K, w1 = 0.9004 | 1036.23

OCCNCCO [diethanolamine]
[2]
Conditions | mass density [kg/m3]
278.14 K | 1107.05
283.14 K | 1103.88
293.15 K | 1097.51
303.14 K | 1091.06
313.14 K | 1084.49
323.14 K | 1077.78
333.14 K | 1071
343.14 K | 1064.14
348.14 K | 1060.68
353.15 K | 1056.83
